Source: publication PMC11714206, “Massively Parallel Screening of Toll/Interleukin‐1 Receptor (TIR)‐Derived Peptides Reveals Multiple Toll‐Like Receptors (TLRs)‐Targeting Immunomodulatory Peptides” (Advanced Science, 2024)
Blank lines part the entries; values can stand above or below the sequence they belong to.

Target: T1, MAL^TIR (Homo sapiens, UniProt P58753)
T1 construct: MAL (residues 79–221); 6xHis; made in house; host or cells: E. coli BL21 (DE3)
Assay: T‐Surf phage library (P8 and P3) selection against MAL^TIR, four rounds, NGS read counts
Type: binding
Conditions: for P8_MAL Rank (after) / P8_MAL Rank (before): P8 library; for P3_MAL Rank (after) / P3_MAL Rank (before): P3 library; for Population: 4th round of selection against MAL TIR, share of NGS reads
In short: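 P8 and P3 T‐Surf libraries panned against plate-coated TIR domains (5 µg mL^−1), 1 h binding at RT, acid elution and TG1/helper-phage amplification per round. After four rounds, pools were PCR-barcoded and sequenced (NovaSeq, 100 bp paired-end, Phred ≥30); peptides ranked by read counts.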

[1] = P8_MAL: rank by count after grouping
[2] = P8_MAL: rank by count before grouping
[3] = P3_MAL: rank by count after grouping
[4] = P3_MAL: rank by count before grouping
[5] = selection against MAL, rank by count after grouping
[6] = selection against MAL, rank by count before grouping
[7] = selection against MAL TIR, rank by count after grouping
[8] = selection against MAL TIR, rank by count before grouping
[9] = 4R selection against MAL, rank after grouping
[10] = 4R selection against MAL, rank before grouping
[11] = P3_MAL pool: P3 T-Surf phage library
[12] = selection against MAL, rank after grouping
[13] = selection against MAL, rank before grouping
[14] = P8_MAL pool: P8 T-Surf phage library

T1 sequence (P58753 79-221): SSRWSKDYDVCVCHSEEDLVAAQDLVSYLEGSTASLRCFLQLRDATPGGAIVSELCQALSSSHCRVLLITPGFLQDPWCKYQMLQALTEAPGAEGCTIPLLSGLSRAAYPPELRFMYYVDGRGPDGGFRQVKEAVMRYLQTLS

Rank (after) [1]: 401
Rank (before) [2]: 1858
Sequence: AFLYTFLINLTPPTEY

Rank (after) [1]: 122
Rank (before) [2]: 1299
Sequence: WFYESLVSLILRDTIV

Rank (after) [3]: 129
Rank (before) [4]: 333
Sequence: RGFLSHLRYHLPAPQH

P8_MAL Rank (after) [5]: 707
P8_MAL Rank (before) [6]: 2749
Sequence: KLIQGWFLYRLMQIEQ

Rank (after) [1]: 119
Rank (before) [2]: 1249
Sequence: WFYERLLSRILRDTKV

P3_MAL Rank (after) [7]: 282
P3_MAL Rank (before) [8]: 3379
Sequence: NQWRNALTAAANLSDR

P8_MAL Rank (after) [5]: 684
P8_MAL Rank (before) [6]: 1253
Sequence: WFYERRVSLILLLTIV

P3_MAL Rank (after) [9]: 633
P3_MAL Rank (before) [10]: 3244
Sequence: TSHLHHAMRLNKIDTF

Rank (after) [3]: 120
Rank (before) [4]: 394
Sequence: YAFTGHLRHHLQAKDH

Population [11]: 0.00376%
Sequence: ARLPAICIVIWCSVAX

Rank (after) [1]: 419
Rank (before) [2]: 1135
Sequence: WFYARLVRLILRDPKV

P8_MAL Rank (after) [12]: 525
P8_MAL Rank (before) [13]: 1652
Sequence: AFFWAKLKRVLGNPTL

Population [14]: 0.00371%
Sequence: WFYERLVSLFLRDTKV

Rank (after) [3]: 165
Rank (before) [4]: 499
Sequence: FMSHLYQGLKNRGI

Population [14]: 0.00309%
Sequence: AFFCAQLKSVLGNPTM

Rank (after) [3]: 448
Rank (before) [4]: 3119
Sequence: SSFREGRWRLPEVSKT

Rank (after) [3]: 443
Rank (before) [4]: 1397
Sequence: YAFTGHLHRYLVQRGEP

P8_MAL Rank (after) [12]: 507
P8_MAL Rank (before) [13]: 2144
Sequence: LFLWECLKQLLRSDGR

P3_MAL Rank (after) [12]: 543
P3_MAL Rank (before) [13]: 1418
Sequence: YAFTGHLHRYLLQRGG

P8_MAL Rank (after) [12]: 498
P8_MAL Rank (before) [13]: 2582
Sequence: TFLGHLYNALVQAGI

Rank (after) [1]: 139
Rank (before) [2]: 1767
Sequence: AFLYAFLNNLTHPTTF

Population [14]: 0.0034%
Sequence: AFLYTFLINLTHPTNS

Rank (after) [1]: 96
Rank (before) [2]: 1250
Sequence: WFYERLLNLILRDTKV

P8_MAL Rank (after) [12]: 529
P8_MAL Rank (before) [13]: 1657
Sequence: AFFWAHLRTVLGKPTI

P3_MAL Rank (after) [12]: 571
P3_MAL Rank (before) [13]: 2325
Sequence: RLWDRLRYLMPRNNHH

Rank (after) [1]: 459
Rank (before) [2]: 1324
Sequence: WFLFTVRSAIYAMDQVADT

P3_MAL Rank (after) [7]: 256
P3_MAL Rank (before) [8]: 2378
Sequence: RGFLSHLRHHLQEQDH

P8_MAL Rank (after) [5]: 688
P8_MAL Rank (before) [6]: 1833
Sequence: AFLYTFLIILTHPINF

P3_MAL Rank (after) [7]: 265
P3_MAL Rank (before) [8]: 3138
Sequence: SSFREGLLRLLELRKK

P3_MAL Rank (after) [7]: 261
P3_MAL Rank (before) [8]: 2475
Sequence: RLLNGKKRCISFIAG

P8_MAL Rank (after) [12]: 513
P8_MAL Rank (before) [13]: 2073
Sequence: LFFWEHLKQLLRNDGR

P3_MAL Rank (after) [7]: 260
P3_MAL Rank (before) [8]: 2056
Sequence: ESILNQLRRSSQSFAT

P3_MAL Rank (after) [5]: 755
P3_MAL Rank (before) [6]: 2873
Sequence: HQAFWNRLWAKLKPP

P3_MAL Rank (after) [12]: 503
P3_MAL Rank (before) [13]: 2809
Sequence: HPKGSYREALAEHEKR

P8_MAL Rank (after) [9]: 616
P8_MAL Rank (before) [10]: 1968
Sequence: AFLDPFLINLIQASIL

Rank (after) [1]: 167
Rank (before) [2]: 2379
Sequence: QLIQQWMNCTCTSCI

Population [14]: 0.00402%
Sequence: WFYKRLVSLILRDTKV

P3_MAL Rank (after) [7]: 226
P3_MAL Rank (before) [8]: 2304
Sequence: LKAERWRQALEKAGKL

Rank (after) [1]: 177
Rank (before) [2]: 909
Sequence: LFFWESLKQLLGNPTM

P8_MAL Rank (after) [12]: 568
P8_MAL Rank (before) [13]: 1742
Sequence: AFFGEQLVTGLAKRSS

Rank (after) [3]: 117
Rank (before) [4]: 254
Sequence: MSHLYQGLKNRGIFT

Rank (after) [1]: 386
Rank (before) [2]: 2047
Sequence: EYRNESKFIWDIINAI

Rank (after) [3]: 415
Rank (before) [4]: 2736
Sequence: PNLRTKGLNYRMRTKT

Population [11]: 0.056%
Rank (after) [3]: 97
Rank (before) [4]: 97
Sequence: YFWHALKNALAVNNDV

Rank (after) [1]: 187
Rank (before) [2]: 1155
Sequence: WFYERLVSLILRHTKL

Rank (after) [1]: 458
Rank (before) [2]: 1279
Sequence: WFYERLVCLLLRDSKV

P8_MAL Rank (after) [5]: 682
P8_MAL Rank (before) [6]: 1576
Sequence: AILYTFLINLTLPANF

P3_MAL Rank (after) [5]: 676
P3_MAL Rank (before) [6]: 1673
Sequence: VEPTQVRKQSGAVENATG

P3_MAL Rank (after) [12]: 488
P3_MAL Rank (before) [13]: 2636
Sequence: PDKDKGGENAFINNIV

P8_MAL Rank (after) [9]: 655
P8_MAL Rank (before) [10]: 1590
Sequence: AFFCTQLLNVLRKPTI

P8_MAL Rank (after) [7]: 277
P8_MAL Rank (before) [8]: 2392
Sequence: HFFLDSTEKHSGRNQL

Population [14]: 0.00309%
Sequence: AFFWAQLKSVLGNRTM

P3_MAL Rank (after) [12]: 578
P3_MAL Rank (before) [13]: 2421
Sequence: RGLLSQLRHHLQAKDH
